Measured values reported in the supplement of paper PMC11451515.

Tested on: NOMO1
Experiment: cell viability relative to DMSO control; higher = less cytotoxic
Conditions: 48 h
Method in brief: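 NOMO1 or SEM (500 cells/well) or P12-Ichikawa (1000 cells/well) leukemia cells were adapted for at least four passages in each medium. They were seeded in 1536-well plates (5 μl) and pin-dosed with library compounds in DMSO over an 11-point threefold series, 47 μM to 0.79 nM. CellTiter-Glo One luminescence was read after 48 h at 37°C. Viability is the per-plate percentage relative to DMSO wells, with cell-free wells as background.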

[1] = HPLM + 10% dialyzed FBS, 0.000781 µM
[2] = HPLM + 10% dialyzed FBS, 0.00234 µM
[3] = HPLM + 10% dialyzed FBS, 0.00702 µM
[4] = HPLM + 10% dialyzed FBS, 0.0211 µM
[5] = HPLM + 10% dialyzed FBS, 0.0632 µM
[6] = HPLM + 10% dialyzed FBS, 0.19 µM
[7] = HPLM + 10% dialyzed FBS, 0.569 µM
[8] = HPLM + 10% dialyzed FBS, 1.71 µM
[9] = HPLM + 10% dialyzed FBS, 5.12 µM
[10] = HPLM + 10% dialyzed FBS, 15.4 µM
[11] = HPLM + 10% dialyzed FBS, 46.1 µM
[12] = RPMI 5 mM glucose + 10% FBS, 0.000781 µM
[13] = RPMI 5 mM glucose + 10% FBS, 0.00234 µM
[14] = RPMI 5 mM glucose + 10% FBS, 0.00702 µM
[15] = RPMI 5 mM glucose + 10% FBS, 0.0211 µM
[16] = RPMI 5 mM glucose + 10% FBS, 0.0632 µM
[17] = RPMI 5 mM glucose + 10% FBS, 0.19 µM
[18] = RPMI 5 mM glucose + 10% FBS, 0.569 µM
[19] = RPMI 5 mM glucose + 10% FBS, 1.71 µM
[20] = RPMI 5 mM glucose + 10% FBS, 5.12 µM
[21] = RPMI 5 mM glucose + 10% FBS, 15.4 µM
[22] = RPMI 5 mM glucose + 10% FBS, 46.1 µM
[23] = RPMI 5 mM glucose + 10% dialyzed FBS, 0.000781 µM
[24] = RPMI 5 mM glucose + 10% dialyzed FBS, 0.00234 µM
[25] = RPMI 5 mM glucose + 10% dialyzed FBS, 0.00702 µM
[26] = RPMI 5 mM glucose + 10% dialyzed FBS, 0.0211 µM
[27] = RPMI 5 mM glucose + 10% dialyzed FBS, 0.0632 µM
[28] = RPMI 5 mM glucose + 10% dialyzed FBS, 0.19 µM
[29] = RPMI 5 mM glucose + 10% dialyzed FBS, 0.569 µM
[30] = RPMI 5 mM glucose + 10% dialyzed FBS, 1.71 µM
[31] = RPMI 5 mM glucose + 10% dialyzed FBS, 5.12 µM
[32] = RPMI 5 mM glucose + 10% dialyzed FBS, 15.4 µM
[33] = RPMI 5 mM glucose + 10% dialyzed FBS, 46.1 µM

| SMILES | cell viability [1] [%] | cell viability [2] [%] | cell viability [3] [%] | cell viability [4] [%] | cell viability [5] [%] | cell viability [6] [%] | cell viability [7] [%] | cell viability [8] [%] | cell viability [9] [%] | cell viability [10] [%] | cell viability [11] [%] | cell viability [12] [%] | cell viability [13] [%] | cell viability [14] [%] | cell viability [15] [%] | cell viability [16] [%] | cell viability [17] [%] | cell viability [18] [%] | cell viability [19] [%] | cell viability [20] [%] | cell viability [21] [%] | cell viability [22] [%] | cell viability [23] [%] | cell viability [24] [%] | cell viability [25] [%] | cell viability [26] [%] | cell viability [27] [%] | cell viability [28] [%] | cell viability [29] [%] | cell viability [30] [%] | cell viability [31] [%] | cell viability [32] [%] | cell viability [33] [%] |
| --- | --- | --- | --- | --- | --- | --- | --- | --- | --- | --- | --- | --- | --- | --- | --- | --- | --- | --- | --- | --- | --- | --- | --- | --- | --- | --- | --- | --- | --- | --- | --- | --- | --- |
| NCCc1ccc(O)c(O)c1 | 118 | 124 | 123 | 119 | 131 | 112 | 131 | 125 | 104 | 27.5 | 7.83 | 120 | 112 | 115 | 127 | 121 | 124 | 113 | 110 | 110 | 54.3 | 14 | – | – | – | – | – | – | – | – | – | – | – |
| Cc1nc(N)ncc1-c1nc(N2CCOCC2)c2sc(C(C)(C)O)cc2n1 | – | – | – | – | – | – | – | – | – | – | – | 109 | 118 | 113 | 117 | 106 | 64 | 18.7 | 18.5 | 10.5 | 9.97 | 9.89 | 114 | 113 | 94.2 | 111 | 89.5 | 86.4 | 28.1 | 22.6 | 13.3 | 11.4 | 7.33 |
| Oc1ccc2ccccc2c1SSc1c(O)ccc2ccccc12 | 94.5 | 101 | 101 | 126 | 124 | 135 | 111 | 125 | 114 | 92.8 | 103 | 98.9 | 94.4 | 111 | 119 | 108 | 109 | 110 | 107 | 96.9 | 104 | 96.4 | 85.3 | 93.9 | 117 | 116 | 105 | 105 | 109 | 105 | 96.3 | 100 | 78.9 |
| COc1cc(Cl)cn2c(-c3cccc(NC4CNC4)n3)cnc12 | 123 | 115 | 118 | 142 | 152 | 148 | 141 | 150 | 129 | 129 | 111 | – | – | – | – | – | – | – | – | – | – | – | – | – | – | – | – | – | – | – | – | – | – |
| CN(C)CCOc1ccc(/C(=C(/CCCl)c2ccccc2)c2ccccc2)cc1 | 105 | 116 | 98 | 94.7 | 104 | 126 | 100 | 115 | 95.5 | 68.5 | 42.2 | 106 | 104 | 111 | 109 | 103 | 94.2 | 115 | 105 | 99.1 | 57.3 | 39.6 | 93.4 | 110 | 113 | 116 | 108 | 125 | 108 | 120 | 107 | 76.9 | 50.6 |
| Cc1cccc2c1CC[C@H](CN1CCC(c3c(Cl)cccc3Cl)CC1)C[C@@H]2O | 99.8 | 115 | 116 | 126 | 133 | 154 | 150 | 136 | 116 | 97.9 | 83.9 | – | – | – | – | – | – | – | – | – | – | – | 103 | 124 | 130 | 148 | 129 | 145 | 143 | 103 | 82 | 70.2 | 61.5 |
| Clc1ccccc1C(c1ccccc1)(c1ccccc1)n1ccnc1 | 120 | 115 | 125 | 123 | 116 | 114 | 123 | 105 | 108 | 101 | 78.6 | 103 | 122 | 114 | 122 | 111 | 110 | 114 | 103 | 95 | 92.7 | 69.1 | 119 | 114 | 119 | 110 | 116 | 117 | 124 | 104 | 113 | 111 | 80.3 |
| N[C@@H](Cc1ccc(O)c(O)c1)C(=O)O | 121 | 133 | 117 | 118 | 144 | 131 | 122 | 136 | 131 | 116 | 55.3 | – | – | – | – | – | – | – | – | – | – | – | – | – | – | – | – | – | – | – | – | – | – |
| CC(S)C(=O)NCC(=O)O (configuration not stated) | 116 | 109 | 110 | 116 | 116 | 123 | 108 | 114 | 111 | 97.9 | 89.4 | 120 | 112 | 109 | 107 | 107 | 111 | 107 | 110 | 114 | 116 | 107 | 105 | 113 | 113 | 107 | 107 | 105 | 107 | 112 | 105 | 96.5 | 112 |
| COC(=O)Nc1nc2ccc([S+]([O-])c3ccccc3)cc2[nH]1 (configuration not stated) | 96.8 | 106 | 119 | 110 | 101 | 119 | 121 | 113 | 101 | 97.9 | 66.7 | – | – | – | – | – | – | – | – | – | – | – | 113 | 123 | 120 | 131 | 136 | 137 | 123 | 134 | 130 | 116 | 94.8 |
